The values below come from PubChem BioAssay AID268 (DTP/NCI, 2004).

For this assay, the system named is CD2F1 mice, P1798 lymphosarcoma sc, tumor weight T/C. The experiment in a line: NCI In Vivo Anticancer Drug Screen. Data for tumor model P1798 Lymphosarcoma (subcutaneous) in CD2F1 (CDF1) mice. The conditions noted are these: endpoint: mean tumor weight, higher = larger tumour. As for the experimental part:
The antitumor activity of compounds was measured in mice bearing transplantable tumors. Survival or tumor size were measured and the results are expressed as the measurement made in the treated group (T) divided by the measurement made in the vehicle treated control group (C). The tumor model used in this assay is P1798 Lymphosarcoma (subcutaneous) in CD2F1 (CDF1) mice

The mark [1] stands for this setting: dose: 12.5 mg/kg/injection, schedule: Q01DX005 (sc), vehicle: steriod suspending solution.
[2] abbreviates: dose: 12.5 mg/kg/injection, schedule: Q01DX010 (sc), vehicle: steriod suspending solution.
[3] abbreviates: dose: 25.0 mg/kg/injection, schedule: Q01DX005 (sc), vehicle: steriod suspending solution.
The mark [4] stands for this setting: dose: 25.0 mg/kg/injection, schedule: Q02DX010 (sc), vehicle: steriod suspending solution.
Where [5] appears, read: dose: 50.0 mg/kg/injection, schedule: Q01DX005 (sc), vehicle: steriod suspending solution.
Where [6] appears, read: dose: 50.0 mg/kg/injection, schedule: Q02DX010 (sc), vehicle: steriod suspending solution.
The mark [7] stands for this setting: dose: 100.0 mg/kg/injection, schedule: Q01DX005 (sc), vehicle: steriod suspending solution.
The mark [8] stands for this setting: dose: 100.0 mg/kg/injection, schedule: Q02DX010 (sc), vehicle: steriod suspending solution.
Where [9] appears, read: dose: 25.0 mg/kg/injection, schedule: Q01DX010 (sc), vehicle: steriod suspending solution.
Where [10] appears, read: dose: 50.0 mg/kg/injection, schedule: Q01DX010 (sc), vehicle: steriod suspending solution.
The mark [11] stands for this setting: dose: 50.0 mg/kg/injection, schedule: Q03DX004 (sc), vehicle: steriod suspending solution.
The mark [12] stands for this setting: dose: 100.0 mg/kg/injection, schedule: Q03DX004 (sc), vehicle: steriod suspending solution.
[13] abbreviates: dose: 12.5 mg/kg/injection, schedule: Q01DX010 (ip), vehicle: saline.
Setting [14] is: dose: 25.0 mg/kg/injection, schedule: Q01DX010 (ip), vehicle: saline.
The mark [15] stands for this setting: dose: 100.0 mg/kg/injection, schedule: Q01DX010 (ip), vehicle: saline.
Setting [16] is: dose: 0.25 mg/kg/injection, schedule: Q01DX010 (ip), vehicle: saline.

Several values for one entry are separate records, joined by “and”; a condition that tells them apart may be missing. Equal entries are not always repeated.

As a reminder, the T/C is the ratio of treated to control. As to `CC1(C)O[C@@H]2C[C@H]3[C@@H]4CCC5=CC(=O)C=C[C@]5(C)[C@@]4(F)[C@@H](O)C[C@]3(C)[C@]2(C(=O)CO)O1`, the T/C (dose: 0.5 mg/kg/injection, schedule: Q01DX005 (sc), vehicle: steriod suspending solution) is 56 % of control; the T/C (dose: 1.0 mg/kg/injection, schedule: Q01DX005 (sc), vehicle: steriod suspending solution) is 59 % of control; the T/C (dose: 1.0 mg/kg/injection, schedule: Q01DX010 (sc), vehicle: steriod suspending solution) was 118 % of control; the T/C (dose: 1.0 mg/kg/injection, schedule: Q02DX010 (sc), vehicle: steriod suspending solution) was 101 % of control; the T/C (dose: 1.0 mg/kg/injection, schedule: Q03DX004 (sc), vehicle: steriod suspending solution) is 71 % of control; the T/C (dose: 2.0 mg/kg/injection, schedule: Q01DX005 (sc), vehicle: steriod suspending solution) is 33 % of control. The T/C is 39 % of control (dose: 2.0 mg/kg/injection, schedule: Q01DX010 (sc), vehicle: steriod suspending solution); 80 % of control (dose: 2.0 mg/kg/injection, schedule: Q02DX010 (sc), vehicle: steriod suspending solution); 26 % of control (dose: 2.0 mg/kg/injection, schedule: Q03DX004 (sc), vehicle: steriod suspending solution); 1 % of control (dose: 3.75 mg/kg/injection, schedule: Q01DX010 (sc), vehicle: steriod suspending solution); 16 % of control (dose: 4.0 mg/kg/injection, schedule: Q01DX005 (sc), vehicle: steriod suspending solution); 23 % of control (dose: 4.0 mg/kg/injection, schedule: Q01DX010 (sc), vehicle: steriod suspending solution). In addition, the T/C reads like this: (dose: 4.0 mg/kg/injection, schedule: Q02DX010 (sc), vehicle: steriod suspending solution) 113 % of control; (dose: 4.0 mg/kg/injection, schedule: Q03DX004 (sc), vehicle: steriod suspending solution) 7 % of control.
Take `CC(CCC(C)OS(C)(=O)=O)OS(C)(=O)=O` (stereo unspecified): the T/C (dose: 2.0 mg/kg/injection, schedule: Q01DX010 (ip), vehicle: saline) was 101 % of control; the T/C (dose: 4.0 mg/kg/injection, schedule: Q01DX010 (ip), vehicle: saline) was 59 % of control and 78 % of control; the T/C (dose: 8.0 mg/kg/injection, schedule: Q01DX010 (ip), vehicle: saline) was 101 % of control and 82 % of control.
As for `CC(=O)[C@@]1(O)CC[C@H]2[C@@H]3C[C@H](C)C4=CC(=O)C=C[C@]4(C)[C@@]3(F)[C@@H](O)C[C@@]21C`, the T/C is 3 % of control under setting [1]; 18 % of control and 41 % of control under setting [2]; 3 % of control under setting [3]; 98 % of control under setting [4]; 2 % of control under setting [5]; 93 % of control under setting [6]. The T/C under setting [7] is 1 % of control and the T/C under setting [8] is 98 % of control.
Regarding `CC1C[C@@H]2[C@H]([C@@H](O)C[C@@]3(C)[C@H]2CC[C@]3(O)C(=O)CF)[C@@]2(C)CCC(=O)C=C12` (stereo partly specified), the T/C runs as follows: under setting [1], 92 % of control; under setting [2], 54 % of control and 60 % of control; under setting [3], 47 % of control; under setting [9], 57 % of control and 71 % of control; under setting [5], 55 % of control; under setting [10], 58 % of control and 65 % of control. Further, the T/C is 66 % of control under setting [11]; 100 % of control (dose: 75.0 mg/kg/injection, schedule: Q02DX010 (sc), vehicle: steriod suspending solution); 14 % of control under setting [7]; 93 % of control under setting [8]; 61 % of control under setting [12]; 118 % of control (dose: 150.0 mg/kg/injection, schedule: Q01DX010 (sc), vehicle: steriod suspending solution). For the same compound, the T/C is 95 % of control (dose: 150.0 mg/kg/injection, schedule: Q02DX010 (sc), vehicle: steriod suspending solution) and 25 % of control (dose: 200.0 mg/kg/injection, schedule: Q03DX004 (sc), vehicle: steriod suspending solution).
For `NC(Cc1ccc(N(CCCl)CCCl)cc1)C(=O)O` (stereo unspecified), the T/C (dose: 2.5 mg/kg/injection, schedule: Q01DX010 (ip), vehicle: saline) is 51 % of control and the T/C (dose: 5.0 mg/kg/injection, schedule: Q01DX010 (ip), vehicle: saline) is 39 % of control.
As for `O=C(NCCCCC(NC(=O)OCc1ccccc1)C(=O)NCCCCCCNCCCCCCNC(=O)C(CCCCNC(=O)OCc1ccccc1)NC(=O)OCc1ccccc1)OCc1ccccc1` (stereo unspecified), the T/C is 78 % of control under setting [13]; 66 % of control under setting [14]; 44 % of control and 61 % of control under setting [15]; 70 % of control (dose: 200.0 mg/kg/injection, schedule: Q01DX010 (ip), vehicle: saline).
Turning to `CC(=O)OCC(=O)[C@@]1(O)CC[C@H]2[C@@H]3C[C@H](C)C4=CC(=O)C=C[C@]4(C)[C@H]3[C@@H](O)C[C@@]21C`, the T/C under setting [10] is 5 % of control.
Consider `CC(=O)[C@@]12OC(C)(C)O[C@@H]1C[C@H]1[C@@H]3C[C@H](C)C4=CC(=O)CC[C@]4(C)[C@H]3CC[C@@]12C`, for which the T/C is 72 % of control under setting [1]; 64 % of control under setting [2]; 61 % of control under setting [3]; 95 % of control under setting [4]; 56 % of control (dose: 25.0 mg/kg/injection, schedule: Q03DX004 (sc), vehicle: steriod suspending solution); 38 % of control under setting [5]. Moreover, the T/C is 88 % of control under setting [6]; 59 % of control under setting [11]; 13 % of control under setting [7]; 93 % of control under setting [8]; 16 % of control under setting [12].
On to `CC(=O)OC(C)(C)/C=C/C(=O)[C@](C)(O)[C@H]1[C@H](O)C[C@@]2(C)[C@@H]3CC=C4[C@@H](C[C@H](O)C(=O)C4(C)C)[C@]3(CO)C(=O)C[C@]12C`, for which the T/C was 108 % of control (dose: 0.16 mg/kg/injection, schedule: Q01DX010 (ip), vehicle: saline); 110 % of control under setting [16]; 104 % of control (dose: 0.38 mg/kg/injection, schedule: Q01DX010 (ip), vehicle: saline).
Turning to `O=C(NCCCCC(NC(=O)c1ccccc1)C(=O)NCCCCCCCCCCNC(=O)C(CCCCNC(=O)c1ccccc1)NC(=O)c1ccccc1)c1ccccc1` (stereo unspecified), the T/C was 85 % of control under setting [13]; 93 % of control under setting [14]; 86 % of control (dose: 50.0 mg/kg/injection, schedule: Q01DX010 (ip), vehicle: saline); 90 % of control under setting [15].
As for `CC(=O)[C@H]1CC[C@H]2[C@@H]3C[C@H](C)C4=CC(=O)CC[C@]4(C)[C@@]3(F)[C@@H](O)C[C@]12C`, the T/C was 11 % of control under setting [10]; 4 % of control (dose: 100.0 mg/kg/injection, schedule: Q01DX010 (sc), vehicle: steriod suspending solution); 2 % of control (dose: 200.0 mg/kg/injection, schedule: Q01DX010 (sc), vehicle: steriod suspending solution); 2 % of control (dose: 400.0 mg/kg/injection, schedule: Q01DX010 (sc), vehicle: steriod suspending solution).
For `CO[C@@]12[C@H](COC(N)=O)C3=C(C(=O)C(C)=C(N)C3=O)N1C[C@@H]1N[C@@H]12`, the T/C was 85 % of control under setting [16]; 61 % of control (dose: 0.5 mg/kg/injection, schedule: Q01DX010 (ip), vehicle: saline); 36 % of control (dose: 1.0 mg/kg/injection, schedule: Q01DX010 (ip), vehicle: saline).
Take `C[C@]12CC[C@@H]3c4ccc(O)cc4CC[C@H]3[C@@H]1CC[C@@H]2O`: the T/C (dose: 6.25 mg/kg/injection, schedule: Q01DX010 (sc), vehicle: steriod suspending solution) was 80 % of control and 90 % of control; the T/C under setting [2] was 70 % of control and 86 % of control; the T/C under setting [9] was 77 % of control and 81 % of control; the T/C under setting [10] was 100 % of control and 82 % of control.
As to `C[C@]12CC[C@H](OC3OC(CO)C(O)C(O)C3O)C[C@H]1CC[C@@H]1[C@@H]2CC[C@]2(C)[C@@H](C3=CCOC3=O)CC[C@]12O` (stereo partly specified), the T/C (dose: 0.13 mg/kg/injection, schedule: Q01DX010 (ip), vehicle: saline) is 71 % of control and the T/C under setting [16] was 96 % of control.
As for `O=C(O)CCCc1ccc(N(CCCl)CCCl)cc1`, the T/C runs as follows: (dose: 1.56 mg/kg/injection, schedule: Q01DX010 (ip), vehicle: saline) 69 % of control; (dose: 3.13 mg/kg/injection, schedule: Q01DX010 (ip), vehicle: saline) 31 % of control and 52 % of control; (dose: 6.25 mg/kg/injection, schedule: Q01DX010 (ip), vehicle: saline) 32 % of control and 37 % of control; under setting [13], 3 % of control.
